This passage reports IC50 results from article PMC2248166, “Quantitative peptide binding motifs for 19 human and mouse MHC class I molecules derived using positional scanning combinatorial peptide libraries” (Immunome Research, 2008).

Where a SMILES comes first, the peptide text is derived from it.

This test has as its target HLA A*3201 (Homo sapiens, UniProt P04439, A270S/D101S/D185E/E176V/E277Q/F133L/G103R/G107R/G231S/H175R/I121M/I218V/I322F/K168Q/L105A/L300P/L318F/M331R/P208A/P217A/Q94H/R106L/R138Q/S129P/T104I/T323A/T345S/V100E/V321M/V358M). Description: biochemical. It is filed as binding.

Molecule `CC[C@H](C)[C@H](NC(=O)CNC(=O)[C@@H](NC(=O)[C@@H](NC(=O)[C@H](CC(C)C)NC(=O)CNC(=O)[C@H](CS)NC(=O)[C@@H](NC(=O)[C@@H](N)C(C)C)[C@@H](C)CC)[C@@H](C)CC)C(C)C)C(=O)O` [3102.0356] (H-VICGLIVGI-OH) registered a half-maximal inhibitory concentration (IC50) of 26 nM.

Take `CC[C@H](C)[C@H](NC(=O)[C@H](CO)NC(=O)[C@H](CCCCN)NC(=O)[C@H](Cc1ccccc1)NC(=O)[C@H](CC(C)C)NC(=O)[C@@H](NC(=O)[C@@H](N)CCSC)[C@@H](C)O)C(=O)N[C@@H](CC(C)C)C(=O)N[C@@H](Cc1ccccc1)C(=O)O` [3102.0443] (H-MTLFKSILF-OH): the half-inhibitory concentration (IC50) came to 11 nM.

On to `CC[C@H](C)[C@H](NC(=O)[C@@H](NC(=O)[C@H](CC(C)C)NC(=O)[C@H](CC(C)C)NC(=O)[C@H](CC(C)C)NC(=O)[C@H](CO)NC(=O)[C@H](Cc1ccccc1)NC(=O)[C@H](CC(C)C)NC(=O)[C@@H](N)CO)C(C)C)C(=O)O` [3102.0328] (H-SLFSLLLVI-OH), for which it took 28 nM to reach half-maximal inhibition (IC50). This IC50 is about 2.5-fold higher than that of the molecule before.

In the case of `CC[C@H](C)[C@H](NC(=O)[C@@H](NC(=O)[C@H](CC(N)=O)NC(=O)[C@@H](NC(=O)[C@@H](NC(=O)[C@H](C)NC(=O)[C@H](Cc1c[nH]c2ccccc12)NC(=O)[C@H](CC(C)C)NC(=O)[C@@H](N)[C@@H](C)O)[C@@H](C)CC)[C@@H](C)CC)[C@@H](C)O)C(=O)O` [3102.0403] (H-TLWAIINTI-OH), the IC50 came out at 1.5 nM.

Take `CC(C)[C@H](NC(=O)[C@H](Cc1ccc(O)cc1)NC(=O)[C@@H](NC(=O)[C@@H](N)CCCNC(=N)N)C(C)C)C(=O)NCC(=O)N[C@@H](CC(N)=O)C(=O)N[C@H](C(=O)N[C@@H](C)C(=O)N[C@@H](Cc1c[nH]c2ccccc12)C(=O)O)C(C)C` [3102.0520] (H-RVYVGNVAW-OH): 1.1 nM corresponded to half-maximal inhibition (IC50).

As for `CC[C@H](C)[C@H](NC(=O)[C@H](Cc1c[nH]cn1)NC(=O)[C@@H](NC(=O)[C@H](CCSC)NC(=O)[C@H](CCSC)NC(=O)[C@H](CCCCN)NC(=O)[C@H](CCSC)NC(=O)[C@@H](NC(=O)[C@@H](N)CCSC)[C@@H](C)O)C(C)C)C(=O)O` [3102.0378] (H-MTMKMMVHI-OH), the IC50 worked out at 4.8 nM.

For `CC[C@H](C)[C@H](NC(=O)[C@H](CO)NC(=O)[C@H](CC(C)C)NC(=O)[C@H](CO)NC(=O)[C@H](CCCNC(=N)N)NC(=O)[C@H](Cc1c[nH]c2ccccc12)NC(=O)[C@@H](NC(=O)[C@@H](NC(=O)[C@H](C)N)[C@@H](C)O)[C@@H](C)CC)C(=O)O` [3102.0452] (H-ATIWRSLSI-OH), the IC50 amounted to 1.9 nM.

With `CC[C@H](C)[C@H](N)C(=O)N[C@H](C(=O)N[C@@H](CC(C)C)C(=O)N[C@@H](Cc1c[nH]cn1)C(=O)N[C@@H](CC(C)C)C(=O)N[C@@H](C)C(=O)N[C@@H](CS)C(=O)NCC(=O)N[C@@H](Cc1ccccc1)C(=O)O)[C@@H](C)O` [3102.0338] (H-ITLHLACGF-OH), the midpoint of inhibition, the IC50, lay at 1.4 nM.

Consider `CC[C@H](C)[C@H](NC(=O)[C@H](Cc1ccccc1)NC(=O)[C@H](CC(C)C)NC(=O)[C@@H](NC(=O)[C@@H](N)CC(C)C)[C@@H](C)CC)C(=O)N[C@@H](CO)C(=O)N[C@H](C(=O)N1CCC[C@H]1C(=O)N[C@@H](Cc1ccccc1)C(=O)O)[C@@H](C)CC` [3102.0290] (H-LILFISIPF-OH), for which the IC50 amounted to 25 nM.

Consider `CC[C@H](C)[C@H](N)C(=O)N[C@H](C(=O)N[C@@H](Cc1ccc(O)cc1)C(=O)N1CCC[C@H]1C(=O)N[C@@H](CCCCN)C(=O)N[C@@H](C)C(=O)N[C@@H](CC(C)C)C(=O)N[C@H](C(=O)N[C@@H](Cc1ccccc1)C(=O)O)C(C)C)[C@@H](C)O` [3102.0405] (H-ITYPKALVF-OH), for which half-maximal inhibition (IC50) required 3 nM.

Regarding `CC[C@H](C)[C@H](NC(=O)[C@H](CCC(N)=O)NC(=O)[C@H](CCC(=O)O)NC(=O)[C@H](CC(=O)O)NC(=O)[C@@H](NC(=O)[C@@H](N)CCSC)[C@@H](C)O)C(=O)N[C@@H](Cc1ccc(O)cc1)C(=O)N[C@@H](C)C(=O)N[C@@H](Cc1ccccc1)C(=O)O` [3102.0453] (H-MTDEQIYAF-OH), the midpoint of inhibition, the IC50, lay at 18 nM. This IC50 lies about 6-fold higher than the previous one.

Regarding `CC[C@H](C)[C@H](NC(=O)[C@@H](NC(=O)[C@H](CCCNC(=N)N)NC(=O)[C@@H]1CCCN1C(=O)[C@H](Cc1ccccc1)NC(=O)[C@H](Cc1ccccc1)NC(=O)[C@H](CCSC)NC(=O)[C@@H](NC(=O)[C@H](C)N)[C@@H](C)CC)[C@@H](C)O)C(=O)O` [3102.0423] (H-AIMFFPRTI-OH), the concentration for half-maximal inhibition (IC50) was determined as 1.1 nM.

`CC[C@H](C)[C@H](NC(=O)[C@@H]1CCCN1C(=O)[C@H](Cc1c[nH]cn1)NC(=O)[C@H](CC(N)=O)NC(=O)[C@@H](NC(=O)[C@H](CC(=O)O)NC(=O)[C@H](CCSC)NC(=O)[C@@H](NC(=O)[C@@H](N)CO)[C@@H](C)O)C(C)C)C(=O)O` [3102.0467] (H-STMDVNHPI-OH) yielded an IC50 of 7.4 nM.

Molecule `CC[C@H](C)[C@H](NC(=O)[C@H](CO)NC(=O)[C@H](C)NC(=O)[C@H](Cc1ccc(O)cc1)NC(=O)[C@@H](NC(=O)[C@H](CCC(=O)O)NC(=O)[C@H](CC(N)=O)NC(=O)[C@@H](NC(=O)[C@@H](N)CC(C)C)[C@@H](C)O)[C@@H](C)CC)C(=O)O` [3102.0445] (H-LTNEIYASI-OH) registered a half-inhibitory concentration (IC50) of 13 nM.

Regarding `CC[C@H](C)[C@H](NC(=O)[C@H](CCCCN)NC(=O)[C@H](Cc1ccccc1)NC(=O)[C@H](CC(N)=O)NC(=O)[C@H](CC(N)=O)NC(=O)[C@H](Cc1ccccc1)NC(=O)[C@H](CC(C)C)NC(=O)[C@@H](NC(=O)[C@@H](N)CCCNC(=N)N)C(C)C)C(=O)O` [3102.0429] (H-RVLFNNFKI-OH), the half-inhibitory concentration (IC50) was found to be 0.89 nM.

For the molecule `CC[C@H](C)[C@H](NC(=O)[C@@H](NC(=O)[C@@H](NC(=O)[C@H](CC(C)C)NC(=O)[C@H](CC(C)C)NC(=O)[C@H](CC(N)=O)NC(=O)[C@H](Cc1ccc(O)cc1)NC(=O)[C@H](CCSC)NC(=O)[C@@H](N)CC(C)C)[C@@H](C)O)[C@@H](C)CC)C(=O)O` [3102.0455] (H-LMYNLLTII-OH), half-maximal inhibition (IC50) was put at 30 nM.

On to `CC[C@H](C)[C@H](NC(=O)[C@@H](NC(=O)[C@H](CC(N)=O)NC(=O)[C@H](CC(N)=O)NC(=O)[C@H](Cc1ccc(O)cc1)NC(=O)[C@H](CC(C)C)NC(=O)[C@@H](NC(=O)[C@@H](NC(=O)[C@@H](N)Cc1c[nH]cn1)[C@@H](C)O)[C@@H](C)CC)[C@@H](C)O)C(=O)O` [3102.0385] (H-HTILYNNTI-OH), for which the IC50 came out at 1.9 nM. This IC50 is about 16-fold lower than that of the molecule before.

Take `CC[C@H](C)[C@H](NC(=O)[C@H](CC(C)C)NC(=O)[C@@H](NC(=O)[C@H](CC(N)=O)NC(=O)[C@H](CC(N)=O)NC(=O)[C@H](CO)NC(=O)[C@H](Cc1ccccc1)NC(=O)[C@H](CCSC)NC(=O)[C@@H](N)CCCCN)C(C)C)C(=O)O` [3102.0427] (H-KMFSNNVLI-OH): the 50% inhibitory concentration (IC50) worked out at 1.1 nM.

`CC[C@H](C)[C@H](NC(=O)[C@@H](NC(=O)[C@H](Cc1ccccc1)NC(=O)[C@H](Cc1ccccc1)NC(=O)[C@H](CC(C)C)NC(=O)[C@H](Cc1ccccc1)NC(=O)[C@H](CC(=O)O)NC(=O)[C@@H](NC(=O)[C@@H](N)CCCCN)[C@@H](C)CC)[C@@H](C)CC)C(=O)O` [3102.0306] (H-KIDFLFFII-OH) had a 50% inhibitory concentration (IC50) of 2 nM.

For `CC[C@H](C)[C@H](NC(=O)[C@H](CCSC)NC(=O)[C@H](CC(=O)O)NC(=O)[C@H](CCSC)NC(=O)[C@@H](N)CC(C)C)C(=O)N[C@H](C(=O)N[C@@H](CC(C)C)C(=O)N[C@@H](CO)C(=O)N[C@@H](CC(C)C)C(=O)O)[C@@H](C)O` [3102.0448] (H-LMDMITLSL-OH), the IC50 amounted to 30 nM.

As usually defined, the IC50 is the concentration that gives 50% inhibition.
